Data taken from US20250154686A1, “COMPOUND LIBRARY” (CHUGAI SEIYAKU KABUSHIKI KAISHA, priority 2021, published 2025).

Key:
[1] = target: T1, Bcl-2 protein (Recombinant Human Bcl-2 Protein) (Homo sapiens, UniProt P10415); test: AS-MS evaluation of binding of the mixture libraries of Examples 8 and 9 to Bcl-2, ASMS ratio (%), Example 11; settings: for AS-MS(%) N1 / AS-MS(%) N2 / AS-MS(%) N3 / AS-MS(%) N4: ASMS ratio, mixtures obtained from Example 9, 10 uM Bcl-2 protein; for AS-MS(%) N1: replicate N1; for AS-MS(%) N2: replicate N2; for AS-MS(%) N3: replicate N3 (additional day); for AS-MS(%) N4: replicate N4 (additional day); for binding to Bcl-2 detected by AS-MS: positive controls added to the mixtures of Examples 8 and 9, final compound concentration 100 nM
T1 construct: purchased Novus Biologicals NBP2-34889
T1 sequence (P10415 whole entry): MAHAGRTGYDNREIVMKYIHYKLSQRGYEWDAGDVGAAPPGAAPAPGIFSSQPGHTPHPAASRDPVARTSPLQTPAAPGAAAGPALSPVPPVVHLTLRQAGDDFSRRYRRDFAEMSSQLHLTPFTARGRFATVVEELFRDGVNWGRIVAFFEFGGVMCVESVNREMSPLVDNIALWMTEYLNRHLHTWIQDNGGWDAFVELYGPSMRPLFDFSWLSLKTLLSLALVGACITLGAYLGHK
Method: DMSO solutions (prepared into approximately 5 mM based on calculation from the average molecular weight of each mixture) of the mixtures of each Example shown in Table 11-1-1 were respectively dispensed to 8 wells of MICROPLATE, 96-WELL, PP, V-BOTTOM (Greiner Bio-One International GmbH, 651201). 400 nL each from the 8 wells of the mixtures obtained from Example 8 was dispensed into 3 designated wells while 200 nL each from the 8 wells of the mixtures obtained from Example 9 was dispensed into 3 designated wells, using LABCYTE ECHO® 555 acoustic dispensing system (Beckman Coulter, Inc.). 200 nL each of two types of 10 μM positive controls (B2Q045-01 and B2Q048-01) was dispensed to the mixtures obtained from Example 8. Likewise, 100 nL each of two types of 20 μM positive controls and 400 nL of a DMSO solution by backfill was dispensed to the mixtures obtained from Example 9. Further, Bcl-2 protein (Novus Biologicals, NBP2-34889, Recombinant Human Bcl-2 Protein, Lot E60145051) (19.2 μL) prepared at 5 µM (final protein concentration) for the mixtures obtained from Example 8 and 10 µM (final protein concentration) for the mixtures obtained from Example 9, in advance using a Tris-HCl buffer (25 mM Tris-HCl, pH 7.4, 150 mM NaCl, 0.025% Tween-20, and 1 mM DTT) was added to the well containing the dispensed 1000 compounds or 500 compounds (final compound concentration: 100 nM), and the plate was incubated at 23° C. for 1 hour in the dark. Subsequently, 200 μL of an assay buffer (25 mM Tris-HCl, pH 7.4, 150 mM NaCl, 0.025% Tween-20, and 1 mM DTT) was centrifuged three times at 2000×G at 4° C. for 2 minutes using 96-well MacroSpin column, P-2 Material (Harvard Bioscience, Inc., 74-5655) that had been allowed to swell to condition the 96-well MacroSpin column. Subsequently, 20 μL of the sample thus incubated was added to the 96-well MacroSpin column, P-2 Material after the completion of conditioning, and SEC treatment was performed by centrifugation at 2000×G for 2 minutes. 32 μL of a 1:1 mixed solution of acetonitrile and methanol (LC/MS grade, FUJIFILM Wako Pure Chemical Corp.) was added to a flow-through liquid from SEC, and the mixture was centrifuged at 1800×G at 4° C. for 5 minutes. The supernatant was used as analysis sample ASMS (A). By a similar operation, a sample prepared at 500 compounds/well or 1000 compounds/well and supplemented with only a Tris-HCl buffer containing no Bcl-2 protein was incubated under the same conditions as above, and the same organic solvent as above was added thereto without 96-well MacroSpin column treatment. A supernatant obtained by a centrifugation operation was used as STD (B). Next, by a similar operation, a sample prepared at 1000 compounds/well or 500 compounds/well and supplemented with only a Tris-HCl buffer containing no Bcl-2 protein was incubated under the same conditions as above and treated with 96-well MacroSpin column in the same manner as above, and the same organic solvent as above was added thereto. A supernatant obtained by a centrifugation operation was used as BK (C). These samples were measured by reverse-phase LC/MS.
Then, the samples A, B and C were analyzed for the 1000 compounds or 500 compounds using TraceFinder 5.1 (Thermo Fisher Scientific Inc.) and CHANCE Software (in-house), and an ASMS ratio (%) was calculated according to the following expression.
The mixtures obtained from Example 8 were tested at the number of data of 2 (N1 and N2) in order to ensure reproducibility. The mixtures obtained from Example 9 were tested at the total number of data 4 (N1,N2, N3, and N4) involving the number of data of 2/day (N1 and N2) and data obtained on additional days.

Human Bcl-2 protein = target: T2, Human Bcl-2 protein (Homo sapiens, UniProt P10415); test: Evaluation of binding of compound to Bcl-2 by surface plasmon resonance (SPR)-2, Example 13; settings: for Kd: Biacore T200, biotinylated Bcl-2 immobilized on Sensor Chip SA, 15° C., read-out: Equilibrium dissociation constant KD; for equilibrium dissociation constant KD compared with B2Q045-01 (KD=1.20 μM) or B2Q048-01 (KD=0.480 μM): Biacore T200, 15° C.
T2 construct: purchased Novus Biologicals
T2 sequence (P10415 whole entry): as above
Method: A surface plasmon resonance method was used in order to analyze the binding affinity of the compounds synthesized in Example 12 for Bcl-2, which are shown in Table 13-1. The apparatus used was Biacore T200 (GE Healthcare Japan Corp.), and the running buffer used was HBS (10 mM HEPES-NaOH and 150 mM NaCl, pH 7.4) supplemented with 1 mM DTT, 3 mM EDTA, 0.01% Tween 20 and 4% DMSO. Human Bcl-2 protein (Novus Biologicals) was biotinylated using EZ-Link NHS-PEG4-Biotin (Thermo Fisher scientific Inc.) and immobilized on the surface of Sensor Chip SA (Cytiva). Then, compound solutions having a plurality of concentrations and the running buffer (blank) were added to the Bcl-2-immobilized surface to obtain the binding response of the compounds. Measurement was performed at 15° C.
The obtained sensorgrams were treated with Biacore T200 Evaluation Software, and the equilibrium dissociation constant KD of each compound for Bcl-2 was determined as shown in the following Table 13-2.

[2] = target: T1, Bcl-2 protein (Recombinant Human Bcl-2 Protein); test: AS-MS evaluation of binding of the Example 4 mixture library (1200 compounds/well) to Bcl-2, ASMS ratio (%)
Procedure, shortened: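 A pooled 1200-compound mixture (20 nM each final) was incubated with 20 μM recombinant human Bcl-2 in pH 7.4 Tris-HCl buffer with NaCl, Tween-20 and DTT for 1 h at 23° C. in the dark. Bound ligands were separated by spin-column SEC and measured by reverse-phase LC/MS; ASMS ratio (%) was calculated against protein-free unfiltered standard and protein-free SEC blank.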

[3] = replicate n = 1, mixture library, value belongs to the MS peak assigned to the compound
[4] = replicate n = 2, mixture library, value belongs to the MS peak assigned to the compound

Compound	AS-MS(%) N1 [1] [%]	AS-MS(%) N2 [1] [%]	AS-MS(%) N3 [1] [%]	AS-MS(%) N4 [1] [%]	Kd (Human Bcl-2 protein) [nM]	binding to Bcl-2 detected by AS-MS [1]	equilibrium dissociation constant KD compared with B2Q045-01 (KD=1.20 μM) or B2Q048-01 (KD=0.480 μM) (Human Bcl-2 protein)	ASMS ratio (%) n = 1 [2, 3] [%]	ASMS ratio (%) n = 2 [2, 4] [%]	ASMS ratio (%) n = 1 ([2]; AS-MS, Example 4 mixture library, Bcl-2, replicate n = 1) [%]	ASMS ratio (%) n = 2 ([2]; AS-MS, Example 4 mixture library, Bcl-2, replicate n = 2) [%]
CC(C(=O)Nc1ccc(C(F)(F)F)cc1)c1cc(O)cc(N2CCN(c3ccc(C(=O)NS(=O)(=O)c4ccc(N[C@H](CCN5CCOCC5)CSc5ccccc5)c([N+](=O)[O-])c4)cc3)CC2)c1 (some centres unmarked) [2-2-d1E04-1-0498]	45.5	61.4	52.7	51.0	2510	–	–	–	–	–	–
CCOc1cccc(-c2ccccc2CN2CCN(c3ccc(C(=O)NS(=O)(=O)c4ccc(NCCSc5ccccc5)c([N+](=O)[O-])c4)cc3)CC2)c1 [Compound B2Q045-01, 4-[4-[[2-(3-ethoxyphenyl)phenyl]methyl]piperazin-1-yl]-N-[3-nitro-4-(2-phenylsulfanylethylamino)phenyl]sulfonylbenzamide]	–	–	–	–	–	binding to Bcl-2 was detected	–	–	–	–	–
CC(C(=O)Nc1nc2ccccc2s1)c1cc(O)cc(N2CCN(c3ccc(C(=O)NS(=O)(=O)c4ccc(NCCSc5ccccc5)c([N+](=O)[O-])c4)cc3)CC2)c1 (centres unmarked) [2-2-d1E03-1-0495]	28.9	38.1	35.6	39.3	5340	–	–	–	–	–	–
CCOc1cc(C(C)C(=O)Nc2ccc(F)cc2)cc(N2CCN(c3ccc(C(=O)NS(=O)(=O)c4ccc(N[C@H](CCN5CCOCC5)CSc5ccccc5)c([N+](=O)[O-])c4)cc3)CC2)c1 (some centres unmarked) [2-2-d1E04-2-0454]	36.4	42.2	58.2	62.7	1060	–	smaller equilibrium dissociation constant KD	–	–	–	–
CCOc1cc(C(C)C(=O)Nc2ccc(C)cc2)cc(N2CCN(c3ccc(C(=O)NS(=O)(=O)c4ccc(N[C@H](CCN5CCOCC5)CSc5ccccc5)c([N+](=O)[O-])c4)cc3)CC2)c1 (some centres unmarked) [2-2-d1E04-2-0446]	62.1	45.0	44.0	46.2	1330	–	–	–	–	–	–
CC(C(=O)Nc1nc2ccccc2s1)c1cc(O)cc(N2CCN(c3ccc(C(=O)NS(=O)(=O)c4ccc(N[C@H](CCN5CCOCC5)CSc5ccccc5)c([N+](=O)[O-])c4)cc3)CC2)c1 (some centres unmarked) [2-2-d1E04-1-0495]	59.4	93.2	85.8	69.0	162	–	smaller equilibrium dissociation constant KD	–	–	–	–
CCOc1cc(N2CCN(c3ccc(C(=O)NS(=O)(=O)c4ccc(N[C@H](CCN5CCOCC5)CSc5ccccc5)c([N+](=O)[O-])c4)cc3)CC2)cc2c1CCCC2C(=O)Nc1ccccc1 (some centres unmarked) [2-2-d1E04-2-0466]	53.4	45.9	33.3	36.8	2450	–	–	–	–	–	–
CC(C(=O)Nc1ccccc1)c1cc(O)cc(N2CCN(c3ccc(C(=O)NS(=O)(=O)c4ccc(NCCSc5ccccc5)c([N+](=O)[O-])c4)cc3)CC2)c1 (centres unmarked) [2-2-d1E03-1-0417]	34.2	33.3	44.4	38.0	7910	–	–	–	–	–	–
CC(C(=O)Nc1ccc(F)cc1)c1cc(O)cc(N2CCN(c3ccc(C(=O)NS(=O)(=O)c4ccc(NCCSc5ccccc5)c([N+](=O)[O-])c4)cc3)CC2)c1 (centres unmarked) [2-2-d1E03-1-0454]	34.7	33.4	39.2	38.2	15200	–	–	–	–	–	–
CC(C(=O)Nc1ccccc1)c1cc(O)cc(N2CCN(c3ccc(C(=O)NS(=O)(=O)c4ccc(N[C@H](CCN5CCOCC5)CSc5ccccc5)c([N+](=O)[O-])c4)cc3)CC2)c1 (some centres unmarked) [2-2-d1E04-1-0417]	70.3	77.8	72.8	71.8	582	–	smaller equilibrium dissociation constant KD	–	–	–	–
Cc1ccc(NC(=O)C(C)c2cc(O)cc(N3CCN(c4ccc(C(=O)NS(=O)(=O)c5ccc(N[C@H](CCN6CCOCC6)CSc6ccccc6)c([N+](=O)[O-])c5)cc4)CC3)c2)cc1 (some centres unmarked) [2-2-d1E04-1-0446]	57.8	68.3	60.9	58.1	775	–	smaller equilibrium dissociation constant KD	–	–	–	–
CCOc1cncc(-c2ccccc2CN2CCN(c3ccc(C(=O)NS(=O)(=O)c4ccc(NCCSc5ccccc5)c([N+](=O)[O-])c4)cc3)CC2)c1 [Compound B2Q046-01, 4-[4-[[2-(5-ethoxypyridin-3-yl)phenyl]methyl]piperazin-1-yl]-N-[3-nitro-4-(2-phenylsulfanylethylamino)phenyl]sulfonylbenzamide]	–	–	–	–	–	binding to Bcl-2 was detected	–	–	–	–	–
CCOc1cccc(-c2cc(CN3CCN(c4ccc(C(=O)NS(=O)(=O)C(C)(C)C)cc4)CC3)cc(OC(F)(F)F)c2)c1 [Compound B2L063-01, N-tert-Butylsulfonyl-4-[4-[[3-(3-ethoxyphenyl)-5-(trifluoromethoxy)phenyl]methyl]piperazin-1-yl]benzamide]	–	–	–	–	–	–	–	0.0	0.0	–	–
CCOc1cccc(-c2csc(CN3CCN(c4ccc(C(=O)NS(=O)(=O)CCC(F)(F)F)cc4)CC3)c2)c1 [Compound B2N067-01, 4-[4-[[4-(3-Ethoxyphenyl)thiophen-2-yl]methyl]piperazin-1-yl]-N-(3,3,3-trifluoropropylsulfonyl)benzamide]	–	–	–	–	–	–	–	–	–	0.0	0.0
CCOc1cncc(-c2cc(CN3CCN(c4ccc(C(=O)NS(C)(=O)=O)cc4)CC3)cc(OC(C)C)c2)c1 [Compound B2I058-01, 4-[4-[[3-(5-Ethoxypyridin-3-yl)-5-propan-2-yloxyphenyl]methyl]piperazin-1-yl]-N-methylsulfonylbenzamide]	–	–	–	–	–	–	–	0.0	0.0	–	–
